Assay results: BindingDB's records for doi:10.1021/jm050060l (University of Perugia Via Del Liceo, 2021)

What was measured:
[1] = target: T1, Neuropeptide Y receptor type 1 (Homo sapiens, UniProt P25929); assay: Displacement of 125I-PYY from human neuropeptide Y Y1 receptor expressed in human SK-N-MC cell membrane assessed as inhibition constant incubated for 1 hrs by competitive binding assay
T1 sequence (P25929 whole entry): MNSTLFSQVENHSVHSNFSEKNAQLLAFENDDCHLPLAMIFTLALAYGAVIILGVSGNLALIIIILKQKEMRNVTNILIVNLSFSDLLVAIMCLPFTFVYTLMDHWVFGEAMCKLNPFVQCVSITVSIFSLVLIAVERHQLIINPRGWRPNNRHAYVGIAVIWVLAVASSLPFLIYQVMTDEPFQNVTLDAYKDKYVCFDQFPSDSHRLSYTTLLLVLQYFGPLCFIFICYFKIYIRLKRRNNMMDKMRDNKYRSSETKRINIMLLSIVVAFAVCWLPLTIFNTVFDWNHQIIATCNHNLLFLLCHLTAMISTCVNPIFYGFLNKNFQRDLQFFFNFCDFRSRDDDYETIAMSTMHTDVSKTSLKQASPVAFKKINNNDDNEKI

[2] = target: T2, C-X-C chemokine receptor type 2 (Homo sapiens, UniProt P25025); assay: Antagonist activity at CXCR2 (unknown origin)
T2 sequence (P25025 whole entry): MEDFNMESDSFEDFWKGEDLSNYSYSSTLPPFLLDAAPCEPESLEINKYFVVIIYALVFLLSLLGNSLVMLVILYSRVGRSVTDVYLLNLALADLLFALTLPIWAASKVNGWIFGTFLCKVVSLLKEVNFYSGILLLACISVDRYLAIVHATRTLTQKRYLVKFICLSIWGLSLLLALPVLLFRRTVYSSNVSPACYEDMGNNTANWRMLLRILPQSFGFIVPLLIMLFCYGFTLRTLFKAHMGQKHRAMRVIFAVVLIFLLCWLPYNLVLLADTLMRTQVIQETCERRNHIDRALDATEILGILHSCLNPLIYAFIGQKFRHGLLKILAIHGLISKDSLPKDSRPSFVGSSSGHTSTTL

[3] = target: T3, Bifunctional epoxide hydrolase 2 (Homo sapiens, UniProt P34913); assay: Inhibition of recombinant soluble epoxide hydrolase (unknown origin) using [3H]1,3-diphenyl-trans-propene oxide as substrate assessed as inhibition constant incubated for 5 mins
T3 sequence (P34913 whole entry): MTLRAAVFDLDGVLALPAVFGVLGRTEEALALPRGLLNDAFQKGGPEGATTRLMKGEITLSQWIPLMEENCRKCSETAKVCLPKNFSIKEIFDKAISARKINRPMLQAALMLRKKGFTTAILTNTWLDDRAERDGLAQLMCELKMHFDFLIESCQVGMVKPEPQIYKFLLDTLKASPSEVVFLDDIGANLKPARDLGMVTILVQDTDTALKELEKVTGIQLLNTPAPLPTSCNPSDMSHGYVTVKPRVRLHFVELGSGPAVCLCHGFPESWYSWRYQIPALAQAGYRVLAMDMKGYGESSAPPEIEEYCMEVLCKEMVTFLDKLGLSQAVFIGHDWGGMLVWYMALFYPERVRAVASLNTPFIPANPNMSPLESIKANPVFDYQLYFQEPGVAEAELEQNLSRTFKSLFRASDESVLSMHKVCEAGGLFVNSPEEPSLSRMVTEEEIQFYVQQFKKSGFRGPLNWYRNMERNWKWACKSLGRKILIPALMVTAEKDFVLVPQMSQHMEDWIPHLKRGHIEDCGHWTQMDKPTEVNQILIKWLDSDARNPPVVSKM

SMILES | Ki [1] | further results
COC(=O)C1=C(C)NC(C)=C(C(=O)OC)C1c1cccc(NC(=O)NCCCN2CCC(c3cccc(OC)c3)CC2)c1 | 3.3 nM | 
COC(=O)C1=CNC(C)=C(C(=O)OC)C1c1cccc(N/C(=N/C#N)NCCCN2CCC(c3cccc(OC)c3)CC2)c1 (stereo unspecified) | 5.1 nM | 
COC(=O)C1=CNC(C)=C(C(=O)OC)C1c1cccc(Nc2nnc(CN3CCC(c4cccc(OC)c4)CC3)o2)c1 (stereo unspecified) | 99 nM | 
COC(=O)C1=CNC(C)=C(C(=O)OC)C1c1cccc(Nc2c(NCCCN3CCC(c4cccc(OC)c4)CC3)c(=O)c2=O)c1 (stereo unspecified) | 21 nM | 
CN(C)C(=O)c1cccc(Nc2c(Nc3ccccc3)c(=O)c2=O)c1O [3-(3,4-dioxo-2-(phenylamino)cyclobut-1-enylamino)-2-hydroxy-N,N-dimethylbenzamide] |  | IC50 [2]: 2 nM
CCCCCCCCCCCCNC(=O)NC1CCCCC1 [US8815951, 297] |  | Ki [3]: 7 nM
